From ChEMBL document CHEMBL4765473, “PF-07059013: A Noncovalent Modulator of Hemoglobin for Treatment of Sickle Cell Disease” (J Med Chem, 2021) come the findings set out here.

One may read the Kd as the constant that tells how readily two partners part at equilibrium. A low value points to higher affinity. A word on the IC50: it is the concentration needed to halve the response being measured. What is called Papp is a coefficient for how fast a substance crosses the barrier. The Ki is the dissociation constant of the complex between target and ligand, obtained from inhibition or displacement. Higher therefore signals a looser hold on the target. By logD is commonly meant lipophilicity at a set pH, counting ionised and neutral species. The Papp A→B is the apparent permeability from the apical to the basolateral side of a cell layer. One may read the Papp B→A as the apparent permeability from the basolateral to the apical side of a cell layer. What is called fraction unbound is free concentration divided by total concentration. By half-life is commonly meant the time in which the quantity being followed falls by half. A high value points to slow loss.

Data set [1] is described as follows: Binding affinity to purified human cross-linked HbS by SPR analysis. On the technique in general: Surface plasmon resonance follows binding to a sensor surface in real time, without labels.
The nature of data set [2]: Modulation of HbS (unknown origin) assessed as stabilization of the oxy-state of hemoglobin by measuring conversion from oxyHb (R) to deoxyHb (T) pre-incubated for 1 hr and measured after 120 mins by oxygen dissociation assay. More on the design: species or system Homo sapiens.
The nature of data set [3]: Apparent permeability in MDCK cells. In kind it is ADME, cell-based, Canis lupus familiaris. The conditions noted are these: dog.
Data set [4] in a line: Intrinsic clearance in human hepatocytes assessed per million cells. The conditions noted are these: read-out: CLH. In kind it is ADME, cell-based, Hepatocyte.
The target in data set [5] is T1, Voltage-gated inwardly rectifying potassium channel KCNH2 (Homo sapiens, UniProt Q12809). The data set is described as follows: Binding affinity to human ERG by dofetilide fluorescence polarization binding assay. For orientation: In fluorescence polarisation assays a small probe gives low polarisation when free and higher when bound to something large.
Data set [6] is described as follows: Distribution coefficient, log D of the compound by shake flask method. In kind it is physicochemical. The conditions noted are these: octanol/water.
A short description of data set [7]: Protein binding in human blood. The data set is classed as ADME, tissue-based.
Another data set has as its system Mus musculus. The data set is described as follows: Binding to HbS in sickle Townes mouse at 30 to 900 mg/kg, po dosed via gavage measured after 0.5 to 24 hrs by Hemox-analyzer based assay. In kind it is functional, organism-based. The conditions noted are these: dose 30-900 mg/kg, time 0.5-24 hrs.
Data set [8] in a line: Drug metabolism in human hepatocytes assessed formation of glucuronide metabolites. In kind it is ADME, cell-based, Hepatocyte.
Data set [9] is described as follows: Drug metabolism in human hepatocytes assessed formation of acyl glucuronides metabolites. In kind it is ADME, cell-based, Hepatocyte.
A short description of data set [10]: Apparent permeability from apical to basolateral side in MDCK-MDR1 cells. In kind it is ADME, cell-based, Canis lupus familiaris. As to conditions: dog.
The nature of data set [11]: Apparent permeability from basolateral to apical side in MDCK-MDR1 cells. The data set is classed as ADME, cell-based, Canis lupus familiaris. The conditions noted are these: dog.
For the next data set, the target named is T2, Cytochrome P450 1A2 (Homo sapiens, UniProt P05177).
T2 sequence (P05177 whole entry): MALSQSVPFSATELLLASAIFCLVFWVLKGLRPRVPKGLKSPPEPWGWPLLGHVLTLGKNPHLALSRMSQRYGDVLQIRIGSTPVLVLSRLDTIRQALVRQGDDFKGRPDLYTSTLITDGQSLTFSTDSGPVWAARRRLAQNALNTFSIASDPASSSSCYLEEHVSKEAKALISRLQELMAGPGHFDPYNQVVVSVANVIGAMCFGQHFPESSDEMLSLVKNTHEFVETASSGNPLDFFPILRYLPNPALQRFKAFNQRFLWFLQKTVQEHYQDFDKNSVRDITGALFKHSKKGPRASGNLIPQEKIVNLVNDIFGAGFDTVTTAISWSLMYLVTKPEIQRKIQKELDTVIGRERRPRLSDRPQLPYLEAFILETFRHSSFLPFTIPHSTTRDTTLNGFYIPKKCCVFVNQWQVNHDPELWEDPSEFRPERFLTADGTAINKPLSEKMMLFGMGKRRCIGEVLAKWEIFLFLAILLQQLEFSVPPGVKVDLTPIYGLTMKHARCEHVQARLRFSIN
In words: Inhibition of CYP1A2 (unknown origin). The data set is classed as ADME.

The target in another data set is T3, Cytochrome P450 2C8 (Homo sapiens, UniProt P10632).
T3 sequence (P10632 whole entry): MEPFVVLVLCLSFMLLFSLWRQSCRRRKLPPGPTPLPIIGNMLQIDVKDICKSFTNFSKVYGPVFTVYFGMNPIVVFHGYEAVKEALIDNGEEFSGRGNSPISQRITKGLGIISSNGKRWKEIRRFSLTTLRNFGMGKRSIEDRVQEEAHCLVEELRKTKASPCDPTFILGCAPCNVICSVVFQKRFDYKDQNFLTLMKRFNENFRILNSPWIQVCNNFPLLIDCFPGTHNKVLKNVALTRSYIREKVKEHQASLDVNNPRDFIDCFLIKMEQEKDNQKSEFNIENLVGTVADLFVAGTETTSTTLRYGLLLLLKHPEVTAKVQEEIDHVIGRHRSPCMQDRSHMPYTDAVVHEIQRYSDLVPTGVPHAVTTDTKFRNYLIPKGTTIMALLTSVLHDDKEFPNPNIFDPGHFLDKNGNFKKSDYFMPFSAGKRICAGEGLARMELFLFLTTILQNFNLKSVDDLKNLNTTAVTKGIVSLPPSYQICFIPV
In words: Inhibition of CYP2C8 (unknown origin). The data set is classed as ADME.

For a further data set, the target named is Cytochrome P450 2C9 (Homo sapiens, UniProt P11712). The data set is described as follows: Inhibition of CYP2C9 (unknown origin). In kind it is ADME.
In another data set the target is Cytochrome P450 2D6 (Homo sapiens, UniProt P10635). The data set is described as follows: Inhibition of CYP2D6 (unknown origin). In kind it is ADME.
In the next data set the target is Cytochrome P450 3A4 (Homo sapiens, UniProt P08684). The data set is described as follows: Inhibition of CYP3A4 (unknown origin). The data set is classed as ADME.
Data set [12] is described as follows: Unbound fraction in human plasma. The data set is classed as ADME, cell-free.
Data set [13] can be described thus: Protein binding in human RBC assessed as unbound fraction at 1 mM. In kind it is ADME, tissue-based, Erythrocyte. The conditions noted are these: red blood cells (RBC).
For data set [14], the target named is T1, Voltage-gated inwardly rectifying potassium channel KCNH2. The data set is described as follows: Inhibition of human ERG by patch clamp assay. A general note: Patch clamp records ionic current or voltage across a cell membrane.
Data set [15] can be described thus: Drug metabolism in human hepatocytes assessed formation of acyl migration products. In kind it is ADME, cell-based, Hepatocyte.
Data set [16] can be described thus: Half life in human hepatocytes by NMR analysis. In kind it is ADME, cell-based, Hepatocyte.

T1 sequence (Q12809 whole entry): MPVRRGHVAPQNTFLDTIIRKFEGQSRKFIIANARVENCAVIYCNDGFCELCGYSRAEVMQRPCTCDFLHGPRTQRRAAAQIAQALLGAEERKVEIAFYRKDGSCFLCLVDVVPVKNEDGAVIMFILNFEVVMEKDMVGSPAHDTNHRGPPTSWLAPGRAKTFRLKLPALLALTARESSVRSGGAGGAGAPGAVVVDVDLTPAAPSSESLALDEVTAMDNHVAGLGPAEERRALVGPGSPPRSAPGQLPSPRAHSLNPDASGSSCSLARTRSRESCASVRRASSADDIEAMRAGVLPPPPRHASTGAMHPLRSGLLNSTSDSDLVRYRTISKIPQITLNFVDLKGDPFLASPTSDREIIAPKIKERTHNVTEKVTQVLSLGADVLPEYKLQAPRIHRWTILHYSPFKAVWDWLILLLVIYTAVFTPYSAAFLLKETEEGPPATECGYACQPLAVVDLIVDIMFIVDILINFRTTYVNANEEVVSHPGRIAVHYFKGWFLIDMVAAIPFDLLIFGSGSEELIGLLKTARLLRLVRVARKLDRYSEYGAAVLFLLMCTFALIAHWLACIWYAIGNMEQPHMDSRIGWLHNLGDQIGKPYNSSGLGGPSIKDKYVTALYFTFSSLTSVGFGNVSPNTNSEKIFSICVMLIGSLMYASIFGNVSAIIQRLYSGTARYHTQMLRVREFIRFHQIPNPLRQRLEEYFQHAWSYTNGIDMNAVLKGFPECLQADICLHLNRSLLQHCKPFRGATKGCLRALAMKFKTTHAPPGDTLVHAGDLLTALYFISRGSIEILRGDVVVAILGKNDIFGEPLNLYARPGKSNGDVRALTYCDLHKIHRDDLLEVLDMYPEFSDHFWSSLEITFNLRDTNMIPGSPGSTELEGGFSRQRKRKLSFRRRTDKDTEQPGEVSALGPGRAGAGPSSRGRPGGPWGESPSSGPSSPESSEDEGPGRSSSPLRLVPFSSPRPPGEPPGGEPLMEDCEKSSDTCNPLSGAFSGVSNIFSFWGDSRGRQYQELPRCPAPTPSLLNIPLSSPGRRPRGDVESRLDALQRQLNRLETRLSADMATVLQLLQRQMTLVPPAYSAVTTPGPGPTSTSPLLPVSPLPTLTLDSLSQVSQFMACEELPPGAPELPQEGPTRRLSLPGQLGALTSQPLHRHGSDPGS
Cytochrome P450 2D6, sequence (P10635 whole entry): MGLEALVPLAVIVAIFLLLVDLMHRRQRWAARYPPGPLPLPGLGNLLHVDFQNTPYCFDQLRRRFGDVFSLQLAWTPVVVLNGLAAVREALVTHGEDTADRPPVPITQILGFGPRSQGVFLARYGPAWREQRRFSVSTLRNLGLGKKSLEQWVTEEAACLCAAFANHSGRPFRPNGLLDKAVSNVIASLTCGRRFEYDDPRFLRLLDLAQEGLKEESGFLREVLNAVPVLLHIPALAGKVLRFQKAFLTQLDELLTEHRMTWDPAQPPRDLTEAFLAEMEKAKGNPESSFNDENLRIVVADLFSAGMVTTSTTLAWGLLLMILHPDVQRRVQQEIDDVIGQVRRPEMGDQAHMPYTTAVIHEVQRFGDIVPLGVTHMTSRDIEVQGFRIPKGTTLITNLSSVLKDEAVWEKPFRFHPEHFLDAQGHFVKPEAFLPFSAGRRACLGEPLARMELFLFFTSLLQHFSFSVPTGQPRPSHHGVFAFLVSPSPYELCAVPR
Cytochrome P450 3A4, sequence (P08684 whole entry): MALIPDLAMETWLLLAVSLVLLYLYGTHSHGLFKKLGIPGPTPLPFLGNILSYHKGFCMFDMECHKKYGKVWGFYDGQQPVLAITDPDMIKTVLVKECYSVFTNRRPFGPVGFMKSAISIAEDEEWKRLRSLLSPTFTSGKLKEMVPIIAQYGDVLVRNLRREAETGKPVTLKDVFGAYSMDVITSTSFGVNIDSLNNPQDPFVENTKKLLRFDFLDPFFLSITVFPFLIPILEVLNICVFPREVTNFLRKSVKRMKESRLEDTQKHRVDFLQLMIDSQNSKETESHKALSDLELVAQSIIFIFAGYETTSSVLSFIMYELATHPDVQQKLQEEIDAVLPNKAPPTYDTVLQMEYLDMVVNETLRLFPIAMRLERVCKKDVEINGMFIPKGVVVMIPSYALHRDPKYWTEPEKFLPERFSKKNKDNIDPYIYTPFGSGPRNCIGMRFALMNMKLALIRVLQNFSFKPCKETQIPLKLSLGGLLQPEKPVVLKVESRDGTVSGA
Cytochrome P450 2C9, sequence (P11712 whole entry): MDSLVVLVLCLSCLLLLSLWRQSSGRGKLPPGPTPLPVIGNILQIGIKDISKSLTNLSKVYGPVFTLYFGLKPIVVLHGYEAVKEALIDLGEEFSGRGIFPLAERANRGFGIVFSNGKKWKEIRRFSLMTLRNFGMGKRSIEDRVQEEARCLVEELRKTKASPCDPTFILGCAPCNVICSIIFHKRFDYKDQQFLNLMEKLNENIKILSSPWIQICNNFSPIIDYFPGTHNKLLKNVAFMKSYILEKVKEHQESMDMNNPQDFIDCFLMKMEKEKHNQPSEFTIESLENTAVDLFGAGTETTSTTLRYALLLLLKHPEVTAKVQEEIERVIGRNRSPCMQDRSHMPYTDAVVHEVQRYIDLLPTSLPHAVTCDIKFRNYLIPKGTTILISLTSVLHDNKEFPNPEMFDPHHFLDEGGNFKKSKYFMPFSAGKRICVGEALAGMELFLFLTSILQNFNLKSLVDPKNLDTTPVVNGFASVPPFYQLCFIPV

`C[C@H](Oc1cc2cc(F)cc(F)c2nc1N)c1cc(C(=O)O)ccc1-n1cccn1` came in with a dissociation constant (Kd) in data set [1] of 0.037 µM. Further, the IC50 in data set [2] was 4.6 µM; on Cytochrome P450 1A2 it was over 30 µM; at Cytochrome P450 2C8 it was 17.3 µM; against Cytochrome P450 2C9, 20.6 µM; against Cytochrome P450 2D6, over 30 µM; on Cytochrome P450 3A4, over 30 µM. In data set [14], this molecule had a 50% inhibitory concentration (IC50) of 144 µM. Moreover, in data set [3], the Papp stood at 3 ×10⁻⁶ cm/s. For the same molecule, the hepatocyte CLint in data set [4] is under 3 µL/min/1e6 cells. The molecule also had a Ki in [5] of 40 µM. In data set [6], this molecule displayed a logD of 1. Besides, in data set [7], the PB entry is “Dose-dependent effect”. The PPB result in the data set on Mus musculus was “Dose-dependent effect”. Also, the Drug metabolism result in [8] and in data set [9] was “Metabolite_Detected” in each case. For the same molecule, the apical-to-basolateral permeability (Papp A→B) in data set [10] was 0.4 ×10⁻⁶ cm/s. Further, in data set [11], the Papp B→A turned out to be 4 ×10⁻⁶ cm/s. In [12], the fraction unbound was 0.027. For the same molecule, in data set [13], the fraction unbound at 1000 µM stood at 0.000577.
Take `C=CCOC(=O)[C@H]1O[C@@H](OC(=O)c2ccc(-n3cccn3)c([C@H](C)Oc3cc4cc(F)cc(F)c4nc3N)c2)[C@H](O)[C@@H](O)[C@@H]1O`: in data set [15], the Drug metabolism entry is given as “Metabolite_Detected”. Also, the half-life in [16] was 2.18 h.
